From patent US20050112163A1, “PEST CONTROLLER AMD METHOD FOR CONTROLLING PESTS THEREWITH” (priority 2002, published 2005) come the findings set out here.

A short description of this data set: Vapor pressure by Donovan method. The data set is classed as physicochemical. The conditions noted are these: at 25° C. by Donovan method. The method, then:
Donovan method is a method reported by a person in New method for estimating vapor pressure by the use of gas chromatography: Journal of Chromatography A. 749, pp. 123-129 (1996).
Test pest controllers (a) and (b) were made by the pest controller 1 shown in FIG. 2 with chemical substance 22 containing compound (A) (2,3,5,6-tetrafluoro-4-methoxymethylbenzyl 3-(1-propenyl)-2,2-dimethylcyclopropanecarboxylate, the vapor pressure at 25° C. by Donovan method: 1.4×10^−5 mmHg) as an active ingredient.

With `CC=CC1C(C(=O)OCc2c(F)c(F)c(COC)c(F)c2F)C1(C)C` (stereo not shown) [compound (A), 2,3,5,6-tetrafluoro-4-methoxymethylbenzyl 3-(1-propenyl)-2,2-dimethylcyclopropanecarboxylate], the vapor pressure is recorded as 1.4×10^−5 mmHg.
